Structures are written as SMILES. Activity calls are given as the source filed them. Where only a bound is given, the exact number is not on record here.

Usually AC50 stands for the concentration giving half of the maximal activity seen.

A short description of assay [1]: microbe, parasite or virus in culture. Type of assay: functional. As to conditions: Mycobacterium tuberculosis.
In assay [2] the target is T1, Fatty acid synthase (Homo sapiens, UniProt P49327). The experiment in a line: FAS thioesterase domain inhibitors, dose response, biochemical, endpoint fluorescence intensity, uHTS hits (AID 624327).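 Further: fluorescence from hydrolysis of an O-methyl fluorescein acyl ester substrate by the enzyme.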 In kind it is functional.
T1 sequence (P49327 whole entry, the tested form may be a part): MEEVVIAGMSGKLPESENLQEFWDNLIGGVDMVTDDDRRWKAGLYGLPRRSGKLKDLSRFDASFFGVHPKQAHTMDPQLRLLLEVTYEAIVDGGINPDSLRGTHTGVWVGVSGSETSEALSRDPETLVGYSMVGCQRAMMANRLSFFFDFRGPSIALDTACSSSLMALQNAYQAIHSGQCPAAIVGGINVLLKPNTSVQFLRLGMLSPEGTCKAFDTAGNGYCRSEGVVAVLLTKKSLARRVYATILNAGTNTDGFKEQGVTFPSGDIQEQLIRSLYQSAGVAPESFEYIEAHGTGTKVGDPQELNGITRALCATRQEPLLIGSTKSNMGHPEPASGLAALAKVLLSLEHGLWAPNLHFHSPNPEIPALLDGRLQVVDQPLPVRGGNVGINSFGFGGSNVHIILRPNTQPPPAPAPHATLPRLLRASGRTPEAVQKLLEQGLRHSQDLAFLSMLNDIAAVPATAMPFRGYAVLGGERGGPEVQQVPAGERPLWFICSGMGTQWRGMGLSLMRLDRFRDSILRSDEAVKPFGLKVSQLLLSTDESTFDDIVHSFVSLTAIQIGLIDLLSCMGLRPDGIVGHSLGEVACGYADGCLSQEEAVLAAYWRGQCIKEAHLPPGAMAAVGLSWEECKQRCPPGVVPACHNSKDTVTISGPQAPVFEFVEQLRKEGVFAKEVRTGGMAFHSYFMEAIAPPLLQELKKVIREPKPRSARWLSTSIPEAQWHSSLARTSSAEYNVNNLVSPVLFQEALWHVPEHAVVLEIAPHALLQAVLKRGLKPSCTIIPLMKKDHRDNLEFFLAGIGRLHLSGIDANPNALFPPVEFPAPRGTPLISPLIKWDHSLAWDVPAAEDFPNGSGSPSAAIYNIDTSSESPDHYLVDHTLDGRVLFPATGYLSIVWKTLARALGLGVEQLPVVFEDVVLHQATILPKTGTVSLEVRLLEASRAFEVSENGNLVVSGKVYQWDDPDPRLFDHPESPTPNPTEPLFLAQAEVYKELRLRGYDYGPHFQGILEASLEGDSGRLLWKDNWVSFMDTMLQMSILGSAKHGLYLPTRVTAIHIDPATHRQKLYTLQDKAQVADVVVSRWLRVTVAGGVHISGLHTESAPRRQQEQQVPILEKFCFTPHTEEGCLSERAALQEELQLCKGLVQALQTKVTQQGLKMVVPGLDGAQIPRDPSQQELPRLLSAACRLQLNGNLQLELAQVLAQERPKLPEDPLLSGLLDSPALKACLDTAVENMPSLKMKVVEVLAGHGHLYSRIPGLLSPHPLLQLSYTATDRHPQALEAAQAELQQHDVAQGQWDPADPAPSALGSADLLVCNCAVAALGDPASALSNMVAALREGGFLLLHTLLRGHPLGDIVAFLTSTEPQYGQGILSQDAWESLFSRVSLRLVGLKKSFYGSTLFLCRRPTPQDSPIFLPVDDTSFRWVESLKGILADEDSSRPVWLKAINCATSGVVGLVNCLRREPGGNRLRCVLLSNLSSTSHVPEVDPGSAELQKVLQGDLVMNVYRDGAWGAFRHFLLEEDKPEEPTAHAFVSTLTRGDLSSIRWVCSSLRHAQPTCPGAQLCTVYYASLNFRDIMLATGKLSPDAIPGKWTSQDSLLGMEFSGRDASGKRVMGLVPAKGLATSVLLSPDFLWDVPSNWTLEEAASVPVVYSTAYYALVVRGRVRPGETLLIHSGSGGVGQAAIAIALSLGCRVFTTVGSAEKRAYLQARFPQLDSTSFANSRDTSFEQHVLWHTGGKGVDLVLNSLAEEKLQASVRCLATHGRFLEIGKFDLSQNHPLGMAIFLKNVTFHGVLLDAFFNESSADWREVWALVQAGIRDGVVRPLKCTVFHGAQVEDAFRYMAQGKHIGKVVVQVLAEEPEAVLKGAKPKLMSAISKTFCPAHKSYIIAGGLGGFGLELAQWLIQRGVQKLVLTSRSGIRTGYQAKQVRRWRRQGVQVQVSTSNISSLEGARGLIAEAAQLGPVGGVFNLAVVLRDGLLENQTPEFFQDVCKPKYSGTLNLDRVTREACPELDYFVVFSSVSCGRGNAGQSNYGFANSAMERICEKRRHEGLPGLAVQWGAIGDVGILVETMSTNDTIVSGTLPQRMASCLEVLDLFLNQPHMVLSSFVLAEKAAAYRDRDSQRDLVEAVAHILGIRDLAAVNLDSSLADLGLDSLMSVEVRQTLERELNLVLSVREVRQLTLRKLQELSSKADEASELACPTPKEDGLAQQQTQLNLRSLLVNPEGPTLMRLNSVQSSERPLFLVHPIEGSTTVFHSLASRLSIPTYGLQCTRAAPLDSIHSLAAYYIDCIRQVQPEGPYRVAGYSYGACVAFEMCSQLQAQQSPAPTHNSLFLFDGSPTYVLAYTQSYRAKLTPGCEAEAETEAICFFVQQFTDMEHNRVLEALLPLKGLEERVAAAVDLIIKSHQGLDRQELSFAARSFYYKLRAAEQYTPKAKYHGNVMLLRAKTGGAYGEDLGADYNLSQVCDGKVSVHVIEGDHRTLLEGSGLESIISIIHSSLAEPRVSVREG
Assay [3] in a line: HeLa cell cytotoxicity, dose response, cytotoxicity control for MgcRacGAP inhibitor project (AID 624300). Type of assay: functional.
The target of assay [4] is T2, Rac GTPase-activating protein 1 (Homo sapiens, UniProt Q9H0H5).
T2 sequence (Q9H0H5 whole entry): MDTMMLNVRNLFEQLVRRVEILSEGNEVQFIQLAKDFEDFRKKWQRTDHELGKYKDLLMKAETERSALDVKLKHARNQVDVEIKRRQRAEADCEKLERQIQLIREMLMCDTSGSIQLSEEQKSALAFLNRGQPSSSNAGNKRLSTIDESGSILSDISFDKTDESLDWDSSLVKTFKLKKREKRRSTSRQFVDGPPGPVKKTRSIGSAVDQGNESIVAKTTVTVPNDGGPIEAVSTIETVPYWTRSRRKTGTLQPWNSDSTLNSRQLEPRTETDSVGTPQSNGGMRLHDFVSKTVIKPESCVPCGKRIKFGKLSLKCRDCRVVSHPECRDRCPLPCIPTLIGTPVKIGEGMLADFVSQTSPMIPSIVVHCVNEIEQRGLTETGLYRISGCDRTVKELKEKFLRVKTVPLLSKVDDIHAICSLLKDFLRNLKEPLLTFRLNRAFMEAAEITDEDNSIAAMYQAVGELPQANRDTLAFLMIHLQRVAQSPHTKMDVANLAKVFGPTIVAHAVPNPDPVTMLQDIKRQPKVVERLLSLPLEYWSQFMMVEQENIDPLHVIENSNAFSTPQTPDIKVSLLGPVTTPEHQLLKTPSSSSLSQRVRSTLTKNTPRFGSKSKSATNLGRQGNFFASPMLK
The experiment in a line: MgcRacGAP GTPase-activating activity inhibitors, confirmation, biochemical, ADP Hunter fluorescence, primary and confirmatory (AID 624330). In kind it is functional.

For assay [5], the target named is T1, Fatty acid synthase. The experiment in a line: FAS thioesterase domain inhibitors, dose response, biochemical, kinetic fluorescence intensity (AID 624326).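 Further: rate of fluorescence rise from hydrolysis of a fluorogenic O-methyl fluorescein ester substrate.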 In kind it is functional.
The nature of assay [6]: cells. In kind it is functional, cell-based.
A short description of assay [7]: cells. Type of assay: functional, cell-based. This is another data set of the same source.
Assay [8] addresses Ras and Rab interactor 1/Tyrosine-protein kinase ABL1 (Homo sapiens, UniProt P00519+Q13671). In kind it is functional.
Assay [9] in a line: cytotoxicity in HEK-293T cells, dose response, cytotoxicity control for TCR NF-kB inhibitor project, luminescence, T-cell screen hits (AID 489026).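 Further: cells exposed to compound about 14 hours before the viability readout.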 Type of assay: functional, cell-based.
The nature of assay [10]: CEM21 lymphoblast cell cytotoxicity, dose response, cytotoxicity control for viral fusion inhibitor project, CellTiter-Glo luminescence, cherry-picked (AID 652042).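 Further: potency for signal decrease meaning cytotoxicity.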 In kind it is functional, cell-based. A general note: In ATP-based viability assays light output follows the ATP content of the culture.
The target in assay [11] is Paired box protein Pax-8 (Homo sapiens, UniProt Q06710). The experiment in a line: inhibitors of PAX8-driven TPO luciferase reporter, dose response, RMG-I cells, cherry-pick (AID 687027).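 Further: luciferase reporter driven by Pax8 target thyroperoxidase promoter measured by SteadyGlo luminescence.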 Type of assay: functional, cell-based. For orientation: In a reporter assay the amount or activity of a reporter protein is the signal.
Paired box protein Pax-8, sequence (Q06710 whole entry, the tested form may be a part): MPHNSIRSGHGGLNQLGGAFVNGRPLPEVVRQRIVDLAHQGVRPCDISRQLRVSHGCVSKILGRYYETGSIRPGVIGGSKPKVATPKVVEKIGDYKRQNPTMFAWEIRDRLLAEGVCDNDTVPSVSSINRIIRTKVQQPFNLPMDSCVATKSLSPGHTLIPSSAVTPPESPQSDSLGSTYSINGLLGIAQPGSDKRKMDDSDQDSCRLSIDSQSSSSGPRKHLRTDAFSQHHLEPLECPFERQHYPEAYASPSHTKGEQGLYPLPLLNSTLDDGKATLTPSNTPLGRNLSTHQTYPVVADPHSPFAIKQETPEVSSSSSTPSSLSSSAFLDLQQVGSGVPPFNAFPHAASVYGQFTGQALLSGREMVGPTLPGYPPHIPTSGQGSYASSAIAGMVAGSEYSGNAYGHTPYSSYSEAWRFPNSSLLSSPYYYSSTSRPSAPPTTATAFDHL
Assay [12] is described as follows: inhibitors of clade B AD8 Env fusion, dose response, cell-based, cherry-pick (AID 652062).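 Further: luciferase signal from cell-cell fusion driven by HIV-1 clade B AD8 Env; potency is for inhibitors of fusion seen as a drop in luminescence.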 In kind it is functional.
In assay [13] the target is T3, Histone-lysine N-methyltransferase NSD2 (Homo sapiens, UniProt O96028).
T3 sequence (O96028 whole entry): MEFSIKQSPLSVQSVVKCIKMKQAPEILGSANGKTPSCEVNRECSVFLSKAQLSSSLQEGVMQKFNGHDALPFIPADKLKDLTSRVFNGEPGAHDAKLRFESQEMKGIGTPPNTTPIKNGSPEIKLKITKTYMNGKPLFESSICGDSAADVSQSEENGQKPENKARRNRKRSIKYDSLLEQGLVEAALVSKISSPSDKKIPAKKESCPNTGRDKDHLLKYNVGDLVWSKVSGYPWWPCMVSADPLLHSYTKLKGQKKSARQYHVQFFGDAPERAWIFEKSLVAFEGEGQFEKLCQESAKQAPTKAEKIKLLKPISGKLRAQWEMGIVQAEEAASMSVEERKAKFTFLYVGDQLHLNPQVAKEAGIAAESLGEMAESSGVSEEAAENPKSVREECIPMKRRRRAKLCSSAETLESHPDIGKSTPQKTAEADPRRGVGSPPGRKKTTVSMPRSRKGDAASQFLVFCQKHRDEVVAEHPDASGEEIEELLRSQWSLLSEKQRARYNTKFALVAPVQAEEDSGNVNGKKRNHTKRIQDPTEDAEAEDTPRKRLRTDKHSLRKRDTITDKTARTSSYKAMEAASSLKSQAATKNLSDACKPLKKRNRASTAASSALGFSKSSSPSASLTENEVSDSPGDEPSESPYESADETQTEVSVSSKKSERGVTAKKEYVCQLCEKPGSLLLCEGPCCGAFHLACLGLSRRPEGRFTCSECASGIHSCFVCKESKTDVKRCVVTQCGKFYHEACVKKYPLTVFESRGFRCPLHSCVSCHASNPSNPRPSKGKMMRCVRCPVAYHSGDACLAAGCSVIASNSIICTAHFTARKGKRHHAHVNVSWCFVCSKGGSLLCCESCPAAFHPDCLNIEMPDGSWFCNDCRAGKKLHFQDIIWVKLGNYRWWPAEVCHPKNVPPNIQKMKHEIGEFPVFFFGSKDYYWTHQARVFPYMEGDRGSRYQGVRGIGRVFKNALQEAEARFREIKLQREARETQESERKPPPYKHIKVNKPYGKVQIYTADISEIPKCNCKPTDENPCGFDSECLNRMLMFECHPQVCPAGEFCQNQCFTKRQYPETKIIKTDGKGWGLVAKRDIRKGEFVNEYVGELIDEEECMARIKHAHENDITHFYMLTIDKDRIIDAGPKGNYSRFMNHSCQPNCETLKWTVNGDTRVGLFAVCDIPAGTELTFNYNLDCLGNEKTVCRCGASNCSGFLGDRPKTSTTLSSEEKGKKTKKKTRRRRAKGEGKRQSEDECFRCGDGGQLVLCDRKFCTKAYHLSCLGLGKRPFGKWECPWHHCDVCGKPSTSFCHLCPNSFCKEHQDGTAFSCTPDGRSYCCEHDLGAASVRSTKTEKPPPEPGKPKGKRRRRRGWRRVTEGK
In kind it is biochemical.

A short description of assay [14]: inhibitors of HIV Env-driven cell fusion, dose response, cherry-pick (AID 652057). In kind it is functional, cell-based.
A short description of assay [15]: ZM109 Env clade C HIV-1 fusion inhibitors, dose response, HeLa effector, CEM target cells, luciferase, cherry-pick (AID 652058). Type of assay: functional, cell-based.
Assay [16] in a line: off-target signal loss in HeLa-CEM21 co-culture – HeLa F-luc CTL cells, cherry-picked, counter-screen for HIV-1 Env fusion inhibitor project, dose response (AID 652040).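 Further: potency for signal decrease marking cytotoxic or nonspecific inhibition.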 In kind it is functional, cell-based. (The purpose of a counterscreen is to sort out artefacts and off-target activity.)
Assay [17] deals with T4, Endoribonuclease toxin MazF (Escherichia coli K-12, UniProt P0AE70).
T4 sequence (P0AE70 whole entry): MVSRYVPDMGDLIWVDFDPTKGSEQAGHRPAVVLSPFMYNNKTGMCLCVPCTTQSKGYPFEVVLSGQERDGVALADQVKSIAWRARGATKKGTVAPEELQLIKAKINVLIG
The experiment in a line: MazF toxin RNase activators, dose response, biochemical, fluorescence, single-stranded RNA substrate, uHTS hits (AID 588481). Type of assay: functional.

Assay [18] addresses T4, Endoribonuclease toxin MazF. The experiment in a line: fluorescent RNA oligo signal without MazF, dose response, counter-screen for MazEF activator project, biochemical, fluorescence, single-stranded RNase substrate (AID 588502). Type of assay: functional.
For assay [19], the target named is T5, Corticotropin-releasing factor receptor 2/Corticotropin-releasing factor-binding protein (Homo sapiens, UniProt P24387+Q13324).
T5 sequence (Q13324 whole entry): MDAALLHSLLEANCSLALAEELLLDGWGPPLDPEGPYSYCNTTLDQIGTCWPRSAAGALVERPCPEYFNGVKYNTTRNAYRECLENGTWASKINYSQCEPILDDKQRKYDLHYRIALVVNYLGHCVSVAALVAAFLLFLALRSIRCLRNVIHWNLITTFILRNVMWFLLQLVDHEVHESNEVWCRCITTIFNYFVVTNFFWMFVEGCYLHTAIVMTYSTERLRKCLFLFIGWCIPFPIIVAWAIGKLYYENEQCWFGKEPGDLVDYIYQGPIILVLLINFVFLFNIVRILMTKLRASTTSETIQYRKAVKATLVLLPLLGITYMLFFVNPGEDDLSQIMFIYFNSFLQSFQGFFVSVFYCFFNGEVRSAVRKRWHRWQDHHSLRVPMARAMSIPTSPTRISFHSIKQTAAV
T5 sequence (P24387 whole entry): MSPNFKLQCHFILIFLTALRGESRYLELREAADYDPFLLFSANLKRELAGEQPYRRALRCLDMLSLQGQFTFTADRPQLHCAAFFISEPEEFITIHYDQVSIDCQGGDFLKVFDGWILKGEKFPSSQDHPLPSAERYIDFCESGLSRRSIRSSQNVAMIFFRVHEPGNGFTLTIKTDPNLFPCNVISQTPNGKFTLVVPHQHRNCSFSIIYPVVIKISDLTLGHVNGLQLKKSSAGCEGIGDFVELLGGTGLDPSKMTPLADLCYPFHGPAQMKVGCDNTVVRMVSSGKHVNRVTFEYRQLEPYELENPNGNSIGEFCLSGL
The experiment in a line: activators of CRF receptor 2 with binding protein – uHTS hits, confirmation (AID 602473). Type of assay: functional. Conditions: read-out: EC50_Mean.

Assay [20] concerns the target T5, Corticotropin-releasing factor receptor 2/Corticotropin-releasing factor-binding protein. The experiment in a line: Dose Response confirmation of uHTS hits for small molecule antagonists of the CRF-binding protein and CRF-R2 receptor complex. Type of assay: functional. As to conditions: read-out: IC50_Mean.
Assay [21] addresses T6, Calpain-2 catalytic subunit (Sus scrofa, UniProt P43367).
T6 sequence (P43367 whole entry): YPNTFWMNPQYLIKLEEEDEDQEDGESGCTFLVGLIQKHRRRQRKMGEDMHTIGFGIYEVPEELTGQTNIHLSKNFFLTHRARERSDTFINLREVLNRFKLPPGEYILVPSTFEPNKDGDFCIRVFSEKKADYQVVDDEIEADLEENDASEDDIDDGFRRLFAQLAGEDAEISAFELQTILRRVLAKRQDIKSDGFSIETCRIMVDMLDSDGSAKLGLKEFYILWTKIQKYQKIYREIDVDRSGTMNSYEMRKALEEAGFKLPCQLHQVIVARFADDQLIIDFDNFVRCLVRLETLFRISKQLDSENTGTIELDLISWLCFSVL
The experiment in a line: pig calpain II inhibitor potency, dose response, biochemical, fluorogenic peptide substrate (AID 1420). Type of assay: functional.

The target in assay [22] is Cytochrome P450 2D6 (Homo sapiens, UniProt P10635).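 Further: CYP2D6 member of a cytochrome P450 panel assay.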
The target of assay [23] is Cytochrome P450 2C9 (Homo sapiens, UniProt P11712).

Ras and Rab interactor 1/Tyrosine-protein kinase ABL1, sequence (P00519 whole entry): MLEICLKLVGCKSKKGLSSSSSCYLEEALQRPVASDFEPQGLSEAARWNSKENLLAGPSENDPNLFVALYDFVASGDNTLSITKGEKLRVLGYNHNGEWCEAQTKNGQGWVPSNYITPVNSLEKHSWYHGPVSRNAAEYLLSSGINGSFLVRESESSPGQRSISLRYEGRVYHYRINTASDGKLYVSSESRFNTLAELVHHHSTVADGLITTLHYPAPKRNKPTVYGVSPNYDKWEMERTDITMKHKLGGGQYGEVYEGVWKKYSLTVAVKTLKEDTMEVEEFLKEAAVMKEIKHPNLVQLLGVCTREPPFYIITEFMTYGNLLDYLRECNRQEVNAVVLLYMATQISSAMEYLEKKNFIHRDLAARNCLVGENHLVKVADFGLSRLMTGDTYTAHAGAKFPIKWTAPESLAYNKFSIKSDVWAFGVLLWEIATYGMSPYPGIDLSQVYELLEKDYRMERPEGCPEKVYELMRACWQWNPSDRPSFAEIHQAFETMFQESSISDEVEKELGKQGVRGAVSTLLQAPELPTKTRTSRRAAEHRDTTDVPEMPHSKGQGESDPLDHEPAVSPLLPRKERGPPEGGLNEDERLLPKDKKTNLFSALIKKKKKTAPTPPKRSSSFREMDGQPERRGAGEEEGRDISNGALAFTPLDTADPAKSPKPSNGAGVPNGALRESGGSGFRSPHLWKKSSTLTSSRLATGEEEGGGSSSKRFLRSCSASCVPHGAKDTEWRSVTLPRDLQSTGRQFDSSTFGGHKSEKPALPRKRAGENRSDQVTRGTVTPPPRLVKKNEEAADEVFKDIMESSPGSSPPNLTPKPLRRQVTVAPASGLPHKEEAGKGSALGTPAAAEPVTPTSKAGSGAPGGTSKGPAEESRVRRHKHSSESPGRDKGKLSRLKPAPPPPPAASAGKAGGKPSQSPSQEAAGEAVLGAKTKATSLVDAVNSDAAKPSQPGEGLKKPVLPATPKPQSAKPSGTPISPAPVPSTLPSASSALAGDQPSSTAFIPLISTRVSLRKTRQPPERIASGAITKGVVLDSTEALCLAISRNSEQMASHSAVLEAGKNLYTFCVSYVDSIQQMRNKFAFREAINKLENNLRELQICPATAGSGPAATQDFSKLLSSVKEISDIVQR
Ras and Rab interactor 1/Tyrosine-protein kinase ABL1, sequence (Q13671 whole entry): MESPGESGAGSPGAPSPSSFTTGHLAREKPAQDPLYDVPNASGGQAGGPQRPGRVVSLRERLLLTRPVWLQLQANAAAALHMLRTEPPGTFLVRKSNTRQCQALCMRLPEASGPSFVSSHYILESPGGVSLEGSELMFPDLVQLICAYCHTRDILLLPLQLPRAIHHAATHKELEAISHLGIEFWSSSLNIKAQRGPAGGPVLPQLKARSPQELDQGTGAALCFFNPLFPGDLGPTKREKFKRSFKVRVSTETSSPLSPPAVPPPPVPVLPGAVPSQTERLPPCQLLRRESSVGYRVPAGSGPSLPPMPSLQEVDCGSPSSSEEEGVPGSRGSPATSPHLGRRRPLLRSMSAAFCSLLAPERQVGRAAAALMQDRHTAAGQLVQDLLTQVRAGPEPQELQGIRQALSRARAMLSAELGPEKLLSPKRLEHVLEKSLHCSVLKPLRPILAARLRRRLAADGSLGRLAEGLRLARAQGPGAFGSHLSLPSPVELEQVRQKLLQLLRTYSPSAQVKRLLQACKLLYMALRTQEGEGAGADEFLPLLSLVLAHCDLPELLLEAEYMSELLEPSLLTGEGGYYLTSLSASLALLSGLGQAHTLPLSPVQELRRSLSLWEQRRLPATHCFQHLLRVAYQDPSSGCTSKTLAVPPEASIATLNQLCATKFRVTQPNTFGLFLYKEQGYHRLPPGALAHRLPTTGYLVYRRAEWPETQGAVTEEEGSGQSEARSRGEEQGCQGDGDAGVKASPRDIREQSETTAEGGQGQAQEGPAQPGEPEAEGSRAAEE

For the compound `COc1cc(/C=N/N(C)c2ccccc2)cc(Cl)c1O`, the CC50 in assay [1] is > 40 µM (active); in assay [3], 100 µM (active). In addition, the IC50 was 4.5 µM (active) in assay [2], 38.2 µM (active) in [4] and 5.46 µM (active) in assay [5].

For `CCCOc1ccc(/C=N/NC(=O)CSc2ccccn2)cc1OC`, the EC50 in assay [6] and in assay [7] was > 350 µM (not active) in each case. Also, the IC50 in assay [8] is 12 µM (inactive).

Take `C[C@@H]1CCCCO[C@@H](CN(C)S(=O)(=O)c2cccs2)[C@@H](C)CN([C@H](C)CO)C(=O)c2cc(NS(=O)(=O)c3ccccc3)ccc2O1`: the IC50 in assay [8] is 1.27 µM (active).

As to `Cc1ccc(-c2cnc(NCc3cc4c(cc3[N+](=O)[O-])OCO4)n2C)cc1C`, the CC50 in assay [3] was 100 µM (active). Further, in [4], the IC50 is 77.6 µM (active).

Turning to `COc1cc(-c2c(-c3cc(OC)c(OC)c(OC)c3)noc2C)ccc1F`, the IC50 in assay [9] is 75.9 µM (inactive). Further, the AC50 is 21.3 µM (active) in [10], 2.78 µM (active) in assay [11] and 29.7 µM (active) in assay [12].

Take `O=C1NC(=S)NC(=O)C1=NNc1cc(S(=O)(=O)Nc2ccc(Cl)cc2)ccc1Cl`: the AC50 in assay [13] is > 20 µM (inactive).

In the case of `CCOC(=O)N1CCN(C(=O)C[C@H]2C[C@@]3(C(=O)OC)C(=C[C@H](C(C)(C)C)O[C@@H]3C)N(CCC3=CCCCC3)C2=O)CC1`, the AC50 was 2.49 µM (active) in [14]; 25.6 µM (active) in assay [10]; 3.45 µM (active) in assay [15]; 4.21 µM (active) in assay [16]; 3.46 µM (active) in [12].

As to `CC(C)(C)n1nnnc1C(c1cccnc1)N(Cc1ccccc1)Cc1cccs1` (stereo not given), the concentration at half-maximal activity (AC50) in assay [14] is 5.51 µM (active); in [10], 52.5 µM (active); in [15], 7 µM (active); in [16], 8.29 µM (active); in assay [12], 17.5 µM (active).

As for `CCOC(=O)/C(=N\Nc1ccc(C(C)=O)cc1)c1csc(Nc2ccccc2)n1`, the EC50 in [17] was > 99 µM (inactive); in assay [18], 38.1 µM (inactive); in [19], 18.3 µM (active).

Turning to `Cc1ccccc1Cn1cccc1/C=C1/C(=N)N2C=CSC2=NC1=O`, the EC50 was > 99 µM (inactive) in assay [17], > 99 µM (inactive) in assay [18] and > 53 µM (inactive) in assay [19]. Moreover, the IC50 in assay [20] is > 47.1 µM (inactive).

On to `CCC(C(=O)c1ccccc1)N(C(=O)c1ccccc1Cl)N1C(=O)C2C3C=CC(C3)C2C1=O` (stereo not given), for which the IC50 in assay [21] was 24.3 µM (not active). The AC50 is 4.55 µM (active) in assay [14]; 6.01 µM (active) in assay [15]; 7.95 µM (active) in assay [16]; 27.5 µM (active) in assay [12]; 7.08 µM (inconclusive) in assay [22]; 10 µM (inconclusive) in assay [23].
